Converted amounts (≈) assume the structure as drawn. Read-outs that look alike come from different tables or passages of the source. Where a SMILES comes first, the peptide text is derived from it. [ ]: non-standard residue; d: D form. ξ: configuration not given here. Oic = O=C(O)[C@@H]1C[C@@H]2CCCC[C@@H]2N1; Tic = O=C(O)[C@@H]1Cc2ccccc2CN1; 2Thi = N[C@@H](Cc1cccs1)C(=O)O; ξTic = O=C(O)C1Cc2ccccc2CN1; ξOic = O=C(O)C1CC2CCCCC2N1; Dab = NCC[C@H](N)C(=O)O; βAla = NCCC(=O)O
Legend:
mouse cutaneous injury = assay: Mouse skin wound healing model; assay type: in vivo, CD-1 derived male mice; settings: topical once daily for 10 days; test substances 100 μg/mouse, CGS-21680 10 μg/mouse
Method: In-vivo assays: Selected compounds were evaluated in an in-vivo mouse skin wound healing model by MDS Pharma Services using the following protocol. Groups of CD-1 derived male mice (n=5) weighting 24±2 g were used. Under hexobarbitol (90 mg/kg, IP) anesthesia, the shoulder and back region of each animal was shaved. A sharp punch (ID 12 mm) was applied to remove the skin including panniculus carnosus and adherent tissues. […] The percent closure of the wound (%) was calculated, and wound half-closure time (CT50) was analyzed by linear regression using Graph-Prism (Graph Software USA). One-way ANOVA followed by Dunnett's test was applied for comparison between the treated and its corresponding vehicle groups at each measurement time point. Differences are considered statistically significant at P<0.05.^41

F. tularensis SCHU-S4 = settings: in vitro MIC
Plague CO92 = settings: in vitro MIC
[1] = system: Staphylococcus aureus Methicillin/Gentamicin/Tetracycline Resistant (ATCC 33592); settings: in vitro MIC; tested at 100, 30, 10, 3, 1, 0.3 and 0.1 μM in 1% DMSO
Bacillus anthracis Ames = settings: in vitro MIC
in vitro [2] = settings: mouse, microsomes, pH 7.4
in vitro [3] = settings: rat, microsomes, pH 7.4
[4] = system: Mycobacterium ranae (ATCC 110); settings: ATCC 110
B. melitensis 16M = settings: in vitro MIC
in vitro [5] = settings: dog, microsomes, pH 7.4
[6] = system: Bacillus subtillis (ATCC 43223); settings: ATCC 43223
[7] = system: Salmonella typhimurium (ATCC 13311); settings: ATCC 13311
in vitro [8] = settings: monkey, microsomes, pH 7.4
[9] = Metabolic stability, human liver microsomes
[10] = Metabolic stability, mouse liver microsomes; settings: mouse, microsomes, pH 7.4
[11] = Metabolic stability, rat liver microsomes; settings: rat, microsomes, pH 7.4
[12] = Metabolic stability, dog liver microsomes; settings: dog, microsomes, pH 7.4
[13] = Metabolic stability, monkey liver microsomes; settings: monkey, microsomes, pH 7.4
in vitro [14] = settings: human, microsomes, pH 7.4

CCNC(=O)[C@H]1O[C@@H](n2cnc3c(N)nc(NCCc4ccc(CCC(=O)O)cc4)nc32)[C@H](O)[C@@H]1O [CGS-21680, 2-p-[2-carboxyethyl]phenethyl-amino-5′-N-ethylcarboxamide-adenosine, reference compound]
CT50 (wound half-closure time) (mouse cutaneous injury): 5.4 days
wound closure Day 3 (mouse cutaneous injury): 41.1%
wound closure Day 5 (mouse cutaneous injury): 54.6%
wound closure Day 7 (mouse cutaneous injury): 70.6%
wound closure Day 9 (mouse cutaneous injury): 77.6%
wound closure Day 11 (mouse cutaneous injury): 84.3%

NCCCC[C@H](NC(=O)[C@H](CCCCN)NC(=O)[C@H](CCCCN)NC(=O)[C@H](CCCCN)NC(=O)C1Cc2ccccc2CN1C(=O)[C@H](CCCCN)NC(=O)CNC(=O)C1CC2CCCCC2N1C(=O)C1Cc2ccccc2CN1C(=O)[C@H](Cc1ccccc1)NC(=O)CNC(=O)C1CC2CCCCC2N1C(=O)C1Cc2ccccc2CN1C(=O)[C@H](CCCCN)NC(=O)CNC(=O)C1CC2CCCCC2N1C(=O)C1Cc2ccccc2CN1C(=O)[C@H](Cc1ccccc1)NC(=O)CNC(=O)[C@@H](N)Cc1cccs1)C(N)=O (stereo partly drawn) [FKAB-1G-Thi, Thi-GF-Tic-Oic-GK-Tic-Oic-GF-Tic-Oic-GK-Tic-KKKK-CONH2] (H-[2Thi]GF[ξTic][ξOic]GK[ξTic][ξOic]GF[ξTic][ξOic]GK[ξTic]KKKK-NH2)
Minimum Inhibitory Concentration F. tularensis SCHU-S4 (F. tularensis SCHU-S4): 250 µg/mL
Minimum Inhibitory Concentration Plague CO92 (Plague CO92; listed as 56): 15.6 µg/mL
Minimum Inhibitory Concentration Staphylococcus aureus ME/GM/TC resistant [1]: 10 µM
Minimum Inhibitory Concentration Bacillus anthracis Ames (Bacillus anthracis Ames; listed as 56): 1.95 µg/mL
remaining at 0.25 h, 1 μM (in vitro [2]): 41%
remaining at 0.5 h, 1 μM (in vitro [2]): 67%
remaining at 0.25 h, 1 μM (in vitro [3]): 107%
remaining at 0.5 h, 1 μM (in vitro [3]): 61%
Minimum Inhibitory Concentration Mycobacterium ranae [4]: 30 µM
Minimum Inhibitory Concentration B. melitensis 16M (B. melitensis 16M): >500 µg/mL
remaining at 0.5 h, 1 μM (in vitro [5]): 61%

CC(=O)NCC(=O)N[C@@H](Cc1ccccc1)C(=O)N1Cc2ccccc2C[C@H]1C(=O)N1[C@H](C(=O)NCC(=O)N[C@@H](CCCCN)C(=O)N2Cc3ccccc3C[C@H]2C(=O)N2[C@H](C(=O)NCC(=O)N[C@@H](Cc3ccccc3)C(=O)N3Cc4ccccc4C[C@H]3C(=O)N3[C@H](C(=O)NCC(=O)N[C@@H](CCCCN)C(=O)N4Cc5ccccc5C[C@H]4C(=O)NCCC(=O)N[C@@H](CCCCN)C(=O)N[C@@H](CCCCN)C(=O)N[C@@H](CCCCN)C(=O)N[C@@H](CCCCN)C(N)=O)C[C@@H]4CCCC[C@@H]43)C[C@@H]3CCCC[C@@H]32)C[C@@H]2CCCC[C@@H]21 [FKAB-1G-βA, Ac-GF-Tic-Oic-GK-Tic-Oic-GF-Tic-Oic-GK-Tic-βAla-KKKK-CONH2] (Ac-GF[Tic][Oic]GK[Tic][Oic]GF[Tic][Oic]GK[Tic][βAla]KKKK-NH2)
Minimum Inhibitory Concentration F. tularensis SCHU-S4 (F. tularensis SCHU-S4): 250 µg/mL
Minimum Inhibitory Concentration Plague CO92 (Plague CO92; listed as 52): 31.25 µg/mL
Minimum Inhibitory Concentration Staphylococcus aureus ME/GM/TC resistant [1]: 30 µM
Minimum Inhibitory Concentration Bacillus anthracis Ames (Bacillus anthracis Ames; listed as 52): 1.95 µg/mL
remaining at 0.25 h, 1 μM (in vitro [2]): 11%
remaining at 0.25 h, 1 μM (in vitro [3]): 118%
remaining at 1 h, 1 μM (in vitro [3]): 44%
Minimum Inhibitory Concentration Mycobacterium ranae [4]: 10 µM
Minimum Inhibitory Concentration B. melitensis 16M (B. melitensis 16M): >500 µg/mL
remaining at 0.5 h, 1 μM (in vitro [5]): 66%
remaining at 1 h, 1 μM (in vitro [5]): 105%

CC(=O)NCC(=O)N[C@@H](Cc1ccccc1)C(=O)N1Cc2ccccc2CC1C(=O)NCC(=O)N[C@@H](CCCCN)C(=O)N1Cc2ccccc2CC1C(=O)NCC(=O)N[C@@H](Cc1ccccc1)C(=O)N1Cc2ccccc2CC1C(=O)NCC(=O)N[C@@H](CCCCN)C(=O)N1Cc2ccccc2CC1C(=O)N[C@@H](CCCCN)C(=O)N[C@@H](CCCCN)C(=O)N[C@@H](CCCCN)C(=O)N[C@@H](CCCCN)C(N)=O (stereo partly shown) [FKAB-1Gg, Ac-GF-Tic-GK-Tic-GF-Tic-GK-Tic-KKKK-CONH2] (Ac-GF[ξTic]GK[ξTic]GF[ξTic]GK[ξTic]KKKK-NH2)
% hemolysis 100/25 μM (first value) (red blood cells; 100 μM): 6%
% hemolysis 100/25 μM (second value) (red blood cells; 25): 4.9%
Minimum Inhibitory Concentration F. tularensis SCHU-S4 (F. tularensis SCHU-S4): 250 µg/mL
Minimum Inhibitory Concentration Plague CO92 (Plague CO92; listed as 34): 31.25 µg/mL
Minimum Inhibitory Concentration Bacillus anthracis Ames (Bacillus anthracis Ames; listed as 34): 0.98 µg/mL
MIC Bacillus Subtillis [6]: 10.00 µM (≈ 19.9 µg/mL)
MIC Salmonella typhimurium [7]: 100 µM (≈ 199 µg/mL)
MIC Mycobacterium ranae [4]: 30.00 µM (≈ 59.6 µg/mL)
Minimum Inhibitory Concentration B. melitensis 16M (B. melitensis 16M): >500 µg/mL

CC(=O)NCC(=O)N[C@@H](Cc1ccccc1)C(=O)N1Cc2ccccc2CC1C(=O)N1C(C(=O)NCC(=O)N[C@@H](CCN)C(=O)N2Cc3ccccc3CC2C(=O)N2C(C(=O)NCC(=O)N[C@@H](Cc3ccccc3)C(=O)N3Cc4ccccc4CC3C(=O)N3C(C(=O)NCC(=O)N[C@@H](CCN)C(=O)N4Cc5ccccc5CC4C(=O)N[C@@H](CCN)C(=O)N[C@@H](CCN)C(=O)N[C@@H](CCN)C(=O)N[C@@H](CCN)C(N)=O)CC4CCCCC43)CC3CCCCC32)CC2CCCCC21 (stereo partly drawn) [FKAB-1Gz, Ac-GF-Tic-Oic-G-Dab-Tic-Oic-GF-Tic-Oic-G-Dab-Tic-Dab-Dab-Dab-Dab-CONH2] (Ac-GF[ξTic][ξOic]G[Dab][ξTic][ξOic]GF[ξTic][ξOic]G[Dab][ξTic][Dab][Dab][Dab][Dab]-NH2)
Minimum Inhibitory Concentration F. tularensis SCHU-S4 (F. tularensis SCHU-S4): 125 µg/mL
Minimum Inhibitory Concentration Plague CO92 (Plague CO92; listed as 55): 15.6 µg/mL
Minimum Inhibitory Concentration Staphylococcus aureus ME/GM/TC resistant [1]: 10 µM
Minimum Inhibitory Concentration Bacillus anthracis Ames (Bacillus anthracis Ames; listed as 55): 0.98 µg/mL
remaining at 0.25 h, 1 μM (in vitro [2]): 74%
remaining at 0.5 h, 1 μM (in vitro [2]): 29%
remaining at 1 h, 1 μM (in vitro [2]): 42%
remaining at 0.25 h, 1 μM (in vitro [3]): 21%
remaining at 0.5 h, 1 μM (in vitro [3]): 7%
remaining at 1 h, 1 μM (in vitro [3]): 80%
remaining at 0.5 h, 1 μM (in vitro [8]): 119%
Minimum Inhibitory Concentration Mycobacterium ranae [4]: 10 µM
Minimum Inhibitory Concentration B. melitensis 16M (B. melitensis 16M): >500 µg/mL
remaining at 1 h, 1 μM (in vitro [5]): 3%

C[C@]12CC[C@H]3[C@@H](CCC4=CC(=O)CC[C@@]43C)[C@@H]1CC[C@@H]2O [Testosterone, testosterone, reference compound]
remaining at 0.25 h, 1 μM ([9]; human, microsomes, pH 7.4): 77%
remaining at 0.5 h, 1 μM ([9]; human, microsomes, pH 7.4): 53%
remaining at 1 h, 1 μM ([9]; human, microsomes, pH 7.4): 29%
remaining at 0.25 h, 1 μM [10]: 3%
remaining at 0.5 h, 1 μM [10]: 0%
remaining at 0.25 h, 1 μM [11]: 0%
remaining at 0.5 h, 1 μM [11]: 0%
remaining at 0.25 h, 1 μM [12]: 85%
remaining at 0.5 h, 1 μM [12]: 62%
remaining at 1 h, 1 μM [12]: 33%
remaining at 0.25 h, 1 μM [13]: 34%
remaining at 0.5 h, 1 μM [13]: 11%
remaining at 1 h, 1 μM [13]: 1%

CC(=O)CC(c1ccccc1)c1c(O)c2ccccc2oc1=O (stereo not shown) [Warfarin, warfarin, reference compound]
remaining at 0.5 h, 1 μM (in vitro [14]): 97%
remaining at 1 h, 1 μM (in vitro [14]): 97%
remaining at 0.25 h, 1 μM (in vitro [2]): 86%
remaining at 0.5 h, 1 μM (in vitro [2]): 111%
remaining at 1 h, 1 μM (in vitro [2]): 110%
% remaining at time T, Human Liver ([9]; first human column (T = 15 min, head not given), 1 μM, 0.5 mg/mL microsomes): 100%
remaining at 0.25 h, 1 μM (in vitro [3]): 93%
remaining at 0.5 h, 1 μM (in vitro [3]): 97%
remaining at 1 h, 1 μM (in vitro [3]): 84%
remaining at 0.25 h, 1 μM (in vitro [8]): 113%
remaining at 0.5 h, 1 μM (in vitro [8]): 109%
remaining at 1 h, 1 μM (in vitro [8]): 81%
remaining at 0.25 h, 1 μM (in vitro [5]): 109%
remaining at 0.5 h, 1 μM (in vitro [5]): 104%
remaining at 1 h, 1 μM (in vitro [5]): 94%
